Laboratory results reported in patent publication US12398093B2, “Compounds and methods for treating inflammatory disorders” (Board of Supervisors of Louisiana State University and …, priority 2019, dated 2025).
Values joined by “and” are separate entries in the source; they are usually repeats but may differ in a detail not shown here. Identical values can stand only once. Like-named read-outs stand apart in the source and are kept apart here. Marks after values point to notes of the source that are not given here.

Tests used:
[1] = target: T1, 5-HT2C (h) (Homo sapiens, UniProt P28335); assay: Radioligand binding, agonist radioligand [125I](±)DOI
T1 sequence (P28335 33-458): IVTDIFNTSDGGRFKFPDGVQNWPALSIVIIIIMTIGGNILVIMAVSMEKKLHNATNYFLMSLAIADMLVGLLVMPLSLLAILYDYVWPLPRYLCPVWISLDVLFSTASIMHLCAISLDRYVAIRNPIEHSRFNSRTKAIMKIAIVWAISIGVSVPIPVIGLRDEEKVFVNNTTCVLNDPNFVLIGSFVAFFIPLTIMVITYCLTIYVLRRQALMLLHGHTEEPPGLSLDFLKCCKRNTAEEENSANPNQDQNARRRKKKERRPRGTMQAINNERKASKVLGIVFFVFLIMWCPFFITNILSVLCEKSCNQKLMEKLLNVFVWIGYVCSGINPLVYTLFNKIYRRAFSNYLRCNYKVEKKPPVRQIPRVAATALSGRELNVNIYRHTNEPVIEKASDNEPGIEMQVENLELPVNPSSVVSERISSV

[2] = test system: C57BL/6J mice; assay: Head twitch response (HTR), magnetometer detection; assay type: in vivo; details: for HTR counts, mean: 30-minute session; for ED50: Mus musculus
Method: The head twitch response (HTR) can be used as a behavioral proxy in rodents for human hallucinogenic effects, because it can reliably distinguish hallucinogenic and non-hallucinogenic 5-HT2A receptor agonists. […] HTR studies were conducted with (R)-DOI and 2C-iBu in C57BL/6J mice.
Male C57BL/6J mice (6-8 weeks old) obtained from Jackson Laboratories (Bar Harbor, ME, USA) were housed at up to four per cage in a climate-controlled room on a reverse-light cycle (lights on at 1900 h, off at 0700 h) and were provided with ad libitum access to food and water, except during behavioral testing. Testing was conducted between 1000 and 1800 h.
Drug doses are based on the equivalent freebase weight. Test substances were dissolved in sterile isotonic saline and injected subcutaneously (SC) at a volume of 5 mL/kg.
The HTR was assessed using a head-mounted magnet and a magnetometer detection coil, according to known methods. Briefly, mice were anesthetized, a small incision was made in the scalp, and a small neodymium magnet was attached to the dorsal surface of the cranium using dental cement. Following a two-week recovery period, HTR experiments were carried out in a well-lit room with at least seven days between sessions to avoid carryover effects. Test compounds were injected immediately prior to testing. Mice were injected with drug or vehicle and then HTR activity was recorded in a glass cylinder surrounded by a magnetometer coil. Coil voltage was low-pass filtered (2-10 kHz cutoff frequency), amplified, and digitized (20 kHz sampling rate) using a Powerlab/8SP with LabChart v 7.3.2 (ADInstruments, Colorado Springs, CO, USA), then filtered off-line (40-200 Hz band-pass).
Experiment 1. Five groups of mice (n=6/group, 30 total) were treated with vehicle or R-DOI (0.1, 0.3, 1, or 3 mg/kg) and HTR activity was assessed for 30 minutes. Experiment 2. Five groups of mice (n=6-7/group, 34 total) were treated with vehicle or 2C-iBu (0.3, 1, 3, or 10 mg/kg) and HTR activity was assessed for 30 minutes. Experiment 3. Two groups of mice (n=7/group, 14 total) were treated with R-DOI (1 mg/kg) or 2C-iBu (3 mg/kg) and HTR activity was assessed for 210 minutes.
For Experiment 1 and Experiment 2, the entire thirty-minute recordings were examined for head twitches, head twitch counts were analyzed using one-way analyses of variance (ANOVA). In addition, HTR counts were analyzed in two-minute time blocks using one-way ANOVAs, with time as a repeated measure. Post hoc pairwise comparisons between selected groups were performed using Tukey's studentized range method.
A Gaussian distribution was used to fit biphasic HTR dose-response data:
[formula] [formula] In these equations, E is the drug effect, Baseline is the response in the control group, Range is the distance from Baseline to the top of the curve, [A] is the dose of the drug, and midA is the logarithm of the dose corresponding to the top of the curve. To determine whether potency differences exist between individual compounds, ED50 values were compared using an extra-sum-of-squares F-test.
For Experiment 3, HTR counts were examined in 5-min time blocks. To determine the half-life of drug responses, the descending phase of the data was fitted with a one-phase exponential decay function. The responses produced by R-(−)-DOI (1 mg/kg) or ELEU02 were analyzed using one-way ANOVA, with time as a repeated measure. Post hoc pairwise comparisons between groups were performed using Sidak's multiple comparisons test.

[3] = In vitro metabolism, intrinsic clearance in human liver microsomes; assay type: in vitro ADME; details: for Clint: human liver microsomes intrinsic clearance; for Clint / half-life / % Compound Remaining, 1st / % Compound Remaining, 2nd / % Compound Remaining, Mean: 1.0×10^−7 M; for microsomal CLint / half-life: human, human liver microsomes
[4] = sc, read-out: ED50 for induction of HTR, based on molar mass
[5] = SC, freebase weight, read-out: ED50 for induction of HTR
[6] = read-out: Half-life (minutes), 1st
[7] = read-out: Half-life (minutes), 2nd
[8] = read-out: Half-life (minutes), Mean

| Structure (SMILES) | Ki [1] [nM] | HTR counts, mean ([2]; 0.3 mg/kg SC) | HTR counts, mean ([2]; 1 mg/kg SC) | HTR counts, mean ([2]; 3 mg/kg SC) | ED50 [2, 4] [µmol/kg] | ED50 [2, 5] [mg/kg] | Clint [3] | microsomal CLint [3] [µL/min/mg] | half-life [3, 6] [min] | half-life [3, 7] [min] | half-life [3, 8] [min] | % Compound Remaining, 1st ([3]; incubation 0 minutes) [%] | % Compound Remaining, 2nd ([3]; incubation 0 minutes) [%] | % Compound Remaining, Mean ([3]; incubation 0 minutes) [%] | % Compound Remaining, 1st ([3]; incubation 15 minutes) [%] | % Compound Remaining, 2nd ([3]; incubation 15 minutes) | % Compound Remaining, Mean ([3]; incubation 15 minutes) [%] | % Compound Remaining, 1st ([3]; incubation 30 minutes) [%] | % Compound Remaining, 2nd ([3]; incubation 30 minutes) [%] | % Compound Remaining, Mean ([3]; incubation 30 minutes) [%] | further results |
| --- | --- | --- | --- | --- | --- | --- | --- | --- | --- | --- | --- | --- | --- | --- | --- | --- | --- | --- | --- | --- | --- |
| COc1cc(CC(C)C)c(OC)cc1CCN [2C-iBu, 2,5-dimethoxy-4-isobutylphenethylamine] | 0.251 | 30.8 counts/30 min | 74.4 ** counts/30 min | 111.1±4.7 counts/30 min and 111.1 ** counts/30 min | 2.17 | 0.7 | <115.5 | < 116 | > 60 | 1020 | > 60 | 100 | 100 | 100 | 91.0 | {126.7} % | 91 | 113.6 | 114.2 | 114 | HTR counts, mean ([2]; 10 mg/kg SC): 43.4* counts/30 min; Peak HTR counts ([2]; Experiment 3, 3 mg/kg SC): 20.1±3.5 counts/5 min; fold lower behavioral potency than R-DOI ([2]; ratio of HTR ED50 values (μmol/kg)): ~3 fold; % Compound Remaining, 1st ([3]; incubation 45 minutes): 105.3%; % Compound Remaining, 2nd ([3]; incubation 45 minutes): 106.5%; % Compound Remaining, Mean ([3]; incubation 45 minutes): 106%; % Compound Remaining, 1st ([3]; incubation 60 minutes): 94.1%; % Compound Remaining, 2nd ([3]; incubation 60 minutes): 94.2%; % Compound Remaining, Mean ([3]; incubation 60 minutes): 94% |
| COc1cc(C[C@@H](C)N)c(OC)cc1I [R-DOI] | 0.631 | 78.8 ** counts/30 min | 128.0±13.2 counts/30 min and 128.0 ** counts/30 min | 116.0 ** counts/30 min | 0.63 | 0.2 | <115.5 | < 116 | 139 | 188 | > 60 | 100 | 100 | 100 | 90.0 | 101.6% | 96 | 79.6 | 105.3 | 92 | HTR counts, mean ([2]; 0.1 mg/kg SC): 46.5 counts/30 min; Peak HTR counts ([2]; Experiment 3, 1 mg/kg SC): 23.3±3.5 counts/5 min; ED50 ([2]; administered IP, otherwise identical conditions, read-out: ED50 for induction of HTR): 0.66 µmol/kg; % Compound Remaining, 1st ([3]; incubation 45 minutes): 77.0%; % Compound Remaining, 2nd ([3]; incubation 45 minutes): 82.1%; % Compound Remaining, Mean ([3]; incubation 45 minutes): 80%; % Compound Remaining, 1st ([3]; incubation 60 minutes): 74.3%; % Compound Remaining, 2nd ([3]; incubation 60 minutes): {91.4} %; % Compound Remaining, Mean ([3]; incubation 60 minutes): 74% |
